Experimental data taken from patent US8569336B2, “Compounds for the treatment of inflammatory disorders” (priority 2008, dated 2013).
Read-outs that look alike come from different tables or passages of the source.

Columns and labels:
[1] = system: TNF-α production from human whole blood; test: Inhibition of TNF-α production from human whole blood (hWBA), LPS stimulated, ELISA; type: cell-based; settings: TNF-α by ELISA, read-out: hWBA (IC50)
[2] = Area under the curve determinations of plasma levels in rats (rrAUC), oral 10 mg/kg; type: in vivo; settings: for RR AUC (rapid rat AUC, rrAUC): blood collected 0.5-6 h post-dosing; for AUC: rat, read-out: RR AUC (rapid rat AUC, rrAUC)
[3] = molecular target: T1, purified catalytic domain of recombinant human TACE (rhTACEc) (Homo sapiens, UniProt P78536, N452Q/S266A); test: TACE kinetic assay: cleavage of internally quenched peptide substrate TNF-FRET 2 (Ki); type: biochemical; settings: TNF-FRET 2 substrate
T1 construct: 6xHis (C); made in house; host or cells: baculovirus/Hi5 insect cells

[4] = Homo sapiens, human whole blood diluted 1:1, LPS stimulated
[5] = Homo sapiens, 3.5 h, human whole blood diluted 1:1, LPS stimulated, 3.5 h
[6] = Homo sapiens, LPS-stimulated human whole blood

T1 sequence (P78536 215-477 S266A/N452Q): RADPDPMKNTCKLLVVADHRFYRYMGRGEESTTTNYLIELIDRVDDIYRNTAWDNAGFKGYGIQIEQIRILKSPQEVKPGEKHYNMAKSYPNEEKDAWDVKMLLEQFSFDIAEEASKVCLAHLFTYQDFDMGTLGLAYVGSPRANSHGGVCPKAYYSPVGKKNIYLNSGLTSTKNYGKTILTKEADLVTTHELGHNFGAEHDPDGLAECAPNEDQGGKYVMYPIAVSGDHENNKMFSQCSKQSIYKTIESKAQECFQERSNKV

Structure (SMILES) | IC50 [1, 6] [nM] | Ki ([3]; read-out: Ki) [nM] | further results
COc1ccc2c(c1)C(=O)N(C[C@@]1(c3cc4nc(C(N)=O)ccc4o3)NC(=O)NC1=O)C2 [Compound 2457] | – | – | IC50 [1, 4]: 200 nM; RR AUC (rapid rat AUC, rrAUC) [2]: 0.113 µM·h
COc1ccc2c(c1)C(=O)N(C[C@@]1(c3cc4nc(-c5ccc(N6CCOCC6)nc5)ccc4o3)NC(=O)NC1=O)C2 [Compound 2151] | – | – | IC50 [1, 5]: 800 nM; AUC ([2]; plasma 0.5-6 h post-dosing): 0.692 µM·h
COc1ccc2c(c1F)C(=O)N(C[C@@]1(c3cc4cc5c(c(-c6cccnc6)c4o3)C(=O)NC5)NC(=O)NC1=O)C2 [Compound 1310] | – | – | AUC ([2]; plasma 0.5-6 h): 0.614 µM·h
COc1ccc2c(c1)C(=O)N(C[C@@]1(c3cc4c(C#N)nccc4o3)NC(=O)NC1=O)C2 [Compound 2445] | – | – | IC50 [1, 4]: 1240 nM; RR AUC (rapid rat AUC, rrAUC) [2]: 0.485 µM·h
CCOC(=O)N1CCc2oc([C@]3(CN4Cc5ccc(OC)cc5C4=O)NC(=O)NC3=O)cc2C1 [Compound 2437] | – | – | IC50 [1, 4]: 654 nM; RR AUC (rapid rat AUC, rrAUC) [2]: 4.026 µM·h
CCCN1CCN(c2ccc3oc([C@]4(CN5Cc6ccc(OC)c(F)c6C5=O)NC(=O)NC4=O)cc3n2)CC1 [Compound 1708] | 175 | – | AUC ([2]; plasma 0.5-6 h): 10.4 µM·h
COc1ccc2c(c1)C(=O)N(C[C@@]1(c3cc4nc(-c5ccnn5C)ccc4o3)NC(=O)NC1=O)C2 [Compound 2116] | – | – | IC50 [1, 5]: 1200 nM; AUC ([2]; plasma 0.5-6 h post-dosing): 5.19 µM·h
COc1ccc2c(c1F)C(=O)N(C[C@@]1(c3cc4nc(N5CC(=O)NC5=O)c(F)cc4o3)NC(=O)NC1=O)C2 [Compound 1330] | – | – | Ki ([3]; Ki): 0.39 nM; AUC ([2]; plasma 0.5-6 h): 3.19 µM·h
COc1ccc2c(c1F)C(=O)N(C[C@@]1(c3cc4nc(N5CCC(N(C)C)CC5)ccc4o3)NC(=O)NC1=O)C2 [Compound 1298] | – | – | IC50 [1, 5]: 79 nM; AUC ([2]; plasma 0.5-6 h post-dosing): 0.037 µM·h
COc1ccc2c(c1F)C(=O)N(C[C@@]1(c3cc4nc(N5CCNC(=O)C5)ccc4o3)NC(=O)NC1=O)C2 [Compound 1700] | – | – | Ki ([3]; Ki): 0.6 nM; AUC ([2]; plasma 0.5-6 h): 0.105 µM·h
COc1ccc2c(c1F)C(=O)N(C[C@@]1(c3cc4nc(N(c5cn[nH]c5)C5CCN(C)CC5)ccc4o3)NC(=O)NC1=O)C2 [Compound 1717] | 183 | 0.62 | –
COc1ccc2c(c1)C(=O)N(C[C@@]1(c3cc4nc(N(c5cn[nH]c5)C5CCN(C)CC5)ccc4o3)NC(=O)NC1=O)C2 [Compound 1703] | – | – | Ki ([3]; Ki): 1 nM; AUC ([2]; plasma 0.5-6 h): 0.064 µM·h
COc1ccc2c(c1)C(=O)N(C[C@@]1(c3cc4c(o3)CCNC4)NC(=O)NC1=O)C2 [Compound 2262] | – | 6.54 | IC50 [1, 5]: ≥ 1000 nM
COc1ccc2c(c1)C(=O)N(C[C@@]1(c3cc4nc(N5CC(C)NC(C)C5)ccc4o3)NC(=O)NC1=O)C2 (stereo partly drawn) [Compound 2120] | – | – | IC50 [1, 5]: 1200 nM; AUC ([2]; plasma 0.5-6 h post-dosing): 5.19 µM·h
COc1ccc2c(c1F)C(=O)N(C[C@@]1(c3cc4nc(N5CCCN(C)CC5)ccc4o3)NC(=O)NC1=O)C2 [Compound 1713] | 153 | 0.76 | –
CCN1CCN(c2ccc3oc(C4(CN5CCc6ccsc6C5=O)NC(=O)NC4=O)cc3n2)CC1 (stereo not drawn) [Compound 2496] | – | 0.66 | IC50 [1, 4]: 314 nM
COc1ccc2c(c1F)C(=O)N(C[C@@]1(c3cc4cc(-c5c(C)nn(C)c5C)c(F)cc4o3)NC(=O)NC1=O)C2 [Compound 1181] | 354 | 0.41 | –
COc1ccc2c(c1)C(=O)N(C[C@@]1(c3cc4cc(C(N)=O)ccc4o3)NC(=O)NC1=O)C2 [Compound 2407] | – | – | Ki ([3]; Ki): 0.12 nM; IC50 [1, 4]: 162 nM
COc1ccc2c(c1)C(=O)N(C[C@@]1(c3cc4c(-c5cccc(C#N)c5)nccc4o3)NC(=O)NC1=O)C2 [Compound 2430] | – | 0.72 | IC50 [1, 4]: 10000 nM
COc1ccc2c(c1)C(=O)N(C[C@@]1(c3cc4cc(C)nc(C)c4o3)NC(=O)NC1=O)C2 [Compound 204] | 4090 | 0.667 | –
O=C1NC(=O)[C@](CN2Cc3ccc(O)cc3C2=O)(c2cc3ncccc3o2)N1 [Compound 1735] | 3830 | – | Ki ([3]; Ki): 1.52 nM
COc1ccc2c(c1)C(=O)N(C[C@@]1(c3cc4ncc(CNCc5ccccc5)cc4o3)NC(=O)NC1=O)C2 [Compound 1912] | 3200 | 2.24 | –
COc1ccc2c(c1)C(=O)N(C[C@@]1(c3cc4nc(N5CCN(c6ccncc6)CC5)ccc4o3)NC(=O)NC1=O)C2 [Compound 2143] | – | 0.976 | IC50 [1, 5]: 551 nM
COc1ccc2c(c1)C(=O)N(C[C@@]1(c3cc4cnc(NC5CC5)nc4o3)NC(=O)NC1=O)C2 [Compound 2297] | – | 0.822 | IC50 [1, 4]: ≥ 1000 nM

Structure (SMILES) | IC50 [1, 6] [nM] | Ki ([3]; read-out: Ki) [nM] | further results
COc1ccc2c(c1)C(=O)N(C[C@@]1(c3cc4nc(-c5cccs5)ccc4o3)NC(=O)NC1=O)C2 [Compound 2162] | – | – | Ki ([3]; Ki): 0.125 nM; IC50 [1, 5]: 1410 nM
COc1ccc2c(c1)C(=O)N(C[C@@]1(c3cc4nc(-c5cnc(OC)nc5OC)ccc4o3)NC(=O)NC1=O)C2 [Compound 1509] | 2920 | 0.5 | –
COc1ccc2c(c1)C(=O)N(C[C@@]1(c3cc4nc(-c5c(C)noc5C)ccc4o3)NC(=O)NC1=O)C2 [Compound 1520] | 1190 | 0.5 | –
COc1ccc2c(c1)C(=O)N(C[C@@]1(c3cc4cc(C(N)C(F)(F)F)ccc4o3)NC(=O)NC1=O)C2 (stereo partly drawn) [Compound 311] | 784 | 0.594 | –
COc1ccc2c(c1)C(=O)N(C[C@@]1(c3cc4c(Cl)nc(N)nc4o3)NC(=O)NC1=O)C2 [Compound 2296] | – | – | Ki ([3]; Ki): 4.59 nM; IC50 [1, 4]: ≥ 10000 nM
COc1ccc2c(c1)C(=O)N(C[C@@]1(c3cc4cc5c(cc4o3)[C@@H](N)CC5)NC(=O)NC1=O)C2 [Compound 2508] | – | 0.52 | IC50 [1, 4]: 1020 nM
COc1ccc2c(c1)C(=O)N(C[C@@]1(c3cc4cc(-c5ccc(N(C)C)nc5)ccc4o3)NC(=O)NC1=O)C2 [Compound 2197] | – | 0.849 | IC50 ([1]; human whole blood diluted 1:1, LPS stimulated, 3.5 h): 2710 nM
COc1ccc2c(c1)C(=O)N(C[C@@]1(c3cc4cc(C(=O)N5CCN(C)CC5)c(C)cc4o3)NC(=O)NC1=O)C2 [Compound 2427] | – | 1.42 | IC50 [1, 4]: 560 nM
COc1ccc2c(c1F)C(=O)N(C[C@@]1(c3cc4nc(Nc5cccnc5)ccc4o3)NC(=O)NC1=O)C2 [Compound 1728] | 280 | 0.47 | –
COc1ccc2c(c1)C(=O)N(C[C@@]1(c3cc4cc(N5CC(=O)NS5(=O)=O)ccc4o3)NC(=O)NC1=O)C2 [Compound 2230] | – | 0.781 | IC50 [1, 5]: 4410 nM
COc1ccc2c(c1F)C(=O)N(C[C@@]1(c3cc4nc(C(N)=O)ccc4o3)NC(=O)NC1=O)C2 [Compound 1904] | 132 | 0.61 | –
COc1ccc2c(c1)C(=O)N(C[C@@]1(c3cc4ccc(C(=O)O)cc4o3)NC(=O)NC1=O)C2 [Compound 2410] | – | 0.3 | IC50 [1, 4]: 591 nM
COC(=O)c1ccc2oc([C@]3(CN4Cc5ccc(OC)c(F)c5C4=O)NC(=O)NC3=O)cc2n1 [Compound 1903] | 248 | 0.48 | –
CCOC(=O)N1CCc2cc([C@]3(CN4Cc5ccc(OC)cc5C4=O)NC(=O)NC3=O)oc2C1 [Compound 317] | 704 | 2.13 | –
COc1ccc2c(c1F)C(=O)N(C[C@@]1(c3cc4nc(-c5cccnc5)ccc4o3)NC(=O)NC1=O)C2 [Compound 2218] | – | 0.232 | IC50 [1, 5]: 1000 nM
O=C1NC(=O)C(CN2Cc3ccccc3C2=O)(c2ccc(Br)cc2)N1 (stereo not drawn) [Compound 1296] | – | 7 | IC50 [1, 5]: > 10000 nM
COc1ccc2c(c1)C(=O)N(CC1([C@H]3C[C@@H](c4ccccc4)C3)NC(=O)NC1=O)C2 (stereo partly drawn) [Compound 1914] | 100000 | 26.1 | –
CCN1CCN(C(=NO)c2ccc3oc([C@]4(CN5Cc6ccc(OC)cc6C5=O)NC(=O)NC4=O)cc3c2)CC1 [Compound 2453] | – | 0.51 | IC50 [1, 4]: 393 nM
COc1ccc2c(c1F)C(=O)N(C[C@@]1(c3cc4cc(-c5cc(=O)[nH]c(N)n5)ccc4o3)NC(=O)NC1=O)C2 [Compound 300] | 364 | 0.538 | –
COc1ccc2c(c1F)C(=O)N(C[C@@]1(c3cc4cncnc4o3)NC(=O)NC1=O)C2 [Compound 303] | 198 | 1.57 | –
COc1ccc2c(c1)C(=O)N(C[C@@]1(c3cc4c(o3)CCN(CC(N)=O)C4)NC(=O)NC1=O)C2 [Compound 2483] | – | – | Ki ([3]; Ki): 0.7 nM; IC50 [1, 4]: 252 nM
CCNC(=O)Nc1ccc2oc([C@]3(CN4Cc5ccc(OC)cc5C4=O)NC(=O)NC3=O)cc2n1 [Compound 1939] | 671 | 1.12 | –
COc1ccc2c(c1)C(=O)N(C[C@@]1(c3ccc(-c4ccc5c(c4)CN(CC4(C)NC(=O)NC4=O)C5=O)cc3)NC(=O)NC1=O)C2 (stereo partly drawn) [Compound 2174] | – | 1.88 | IC50 [1, 5]: 617 nM
